“Also recorded” adds a separate entry of the source. Marks after values point to notes of the source that are not given here.
How the values were obtained:
CNS-infiltrating cells [1] = experiment: Fourth MOG EAE protocol, flow cytometric analysis of CNS-infiltrating cells at onset and peak; assay type: in vivo, C57BL/6 mice
Description: A fourth EAE experiment was run similarly to the above, but was designed to examine the effect of MGBG on cell populations during onset and peak disease. In this protocol, there were 3 experimental groups with 20 mice/group and 1 mock-immunized group with 8 mice. Fingolimod was dosed at 1 mpk QD, MGBG at 30 mpk BID, and the pertussis toxin was administered at 165 ng/dose for both injections. Flow cytometric analysis was performed on CNS-infiltrating cells from 16 mice from each of the vehicle-, fingolimod- and MGBG-treated groups, as well as from all mice in the mock-immunized group. Half of the analyzed mice from each group were collected at the time of EAE onset in the vehicle group and half were collected at the time of EAE peak in the vehicle group. Mouse termination was over eight separate days, because individual mouse in the vehicle group reached EAE onset and EAE peak on different days. Eight (8) of the mice in the vehicle group were sacrificed at each time-point. For each of these mice, a matching mouse from each of Groups 2 and 3 was sacrificed on the same day. For each two (2) of these vehicle group mice, a matching mouse from Group 4 was sacrificed. When selecting matching mice from other groups for termination, the mouse with the highest EAE score was chosen. If no mouse in the group had signs of EAE, a mouse was chosen at random.

CNS-infiltrating cells [2] = experiment: Second MOG EAE protocol, flow cytometric analysis of CNS-infiltrating cells; assay type: in vivo, C57BL/6 mice; conditions: second study
Description: A second EAE experiment was run substantially as disclosed above, except that fingolimod was dosed at 1 mpk QD, and the pertussis toxin was administered at 165 ng/dose for both injections.
In addition to clinical scoring, flow cytometric analysis was performed on CNS-infiltrating cells from 6 mice in each of the vehicle-, fingolimod- and MGBG-treated groups, as well as in all three mice from the mock-immunized (disease-free) group.
On Day 28, the brain and spinal cord tissue (from 6 of 12 mice from each of the MOG-immunized groups; and from all 3 mice from the mock-immunized group) in the second MOG EAE study were […] infiltrating cells were isolated by Percoll gradient. After isolating infiltrating cells from each mouse separately, cells were placed in culture with phorbol myristate acetate (PMA, 50 ng/mL), ionomycin (0.5 μg/mL) and brefeldin (1 μg/mL) and incubated for 4-5 hours. The cells were then washed and stained for flow cytometric analysis, as specified below. The following analyses were performed (Becton Dickinson FACScan):
Anti-CD4-Cy-5/anti-IL-17A-PE/anti-IFNγ-FITC (Th1/Th17 cells)
Anti-CD4-Cy-5/anti-CD11c-PE/anti-CD45.2-FITC (infiltrating dendritic cells)
Anti-CD11b-Cy-5/anti-IL-12-PE/anti-CD45.2-FITC (M1 macrophages)
Anti-CD11b-Cy-5/anti-CD206-PE/anti-IL-10-FITC (M2 macrophages)
The number of cells positive for relevant stains and stain combinations was computed both as a percentage of the analyzed cells and as the average number of cells per mouse for each group.

[3] = Multi-dose rat pharmacokinetic and tolerability study; assay type: in vivo, Sprague Dawley rats; conditions: for AUC0-12 / AUC0-24 / Cmax / Tmax: PO twice daily; for fold increase in mean AUCall compared to Study Day 1: repeat twice-daily PO
Description: The purpose of this study was to determine the pharmacokinetic (PK) properties and tolerability of MGBG in rats. Additionally, recovery from any toxic effects was assessed after a seven day non-dosing period.
Three per group of male Sprague Dawley (CD® IGS, Charles River) aged 7-9 weeks and weighing 222.7-252.0 g were administered by oral (PO) gavage, twice daily, at 10, 20, or 30 mg/kg/dose (20, 40, or 60 mg/kg/day) for seven consecutive days. A washout period of seven days followed. Collection of approximately 200 μL of whole blood was collected from the tail vein of all animals in Groups 5, 6, and 7 were bled at six (Day 1), seven (Day 7), or one (Days 9 through 15) time point(s), respectively. Whole blood samples were collected in a lithium heparin microtainer and processed to plasma by centrifugation. Plasma was frozen at −70° C. Pharmacokinetic analyses were performed on the individual animal plasma concentration versus time data for MGBG using WinNonlin (linear trapezoidal rule for AUC calculations). Nominal dose values and sampling times were used for calculations. For Study Day 7, the reported values for MGBG concentrations at time zero were used in the calculations of AUC. Study Day 1 disposition parameters were not reported due to insufficient terminal phase data to adequately characterize these parameters.

[4] = Day 28, raw numbers of cells, fingolimod 1 mg/kg QD, MGBG 30 mg/kg BID
[5] = Day 28, fingolimod 1 mg/kg QD, MGBG 30 mg/kg BID

CC(/C=N/NC(=N)N)=N\NC(=N)N [MGBG, 1,1′ [methylethanediylidene]dinitrilodiguanidine]
CD4+ IFNy+ (CNS-infiltrating cells [1]; Onset): 3.19 +/− # cells (10^3)
CD4+ IFNγ+ (CNS-infiltrating cells [1]; Onset): 9.57 % cells
CD4+ IL-17A+ IFNy+ (CNS-infiltrating cells [1]; Onset): 1.56 +/− # cells (10^3)
CD4+ IL-17A+ IFNγ+ (CNS-infiltrating cells [1]; Onset): 4.14 % cells
CD4+ IFNy+ (CNS-infiltrating cells [1]; Peak): 4.57 +/− # cells (10^3)
CD4+ IFNγ+ (CNS-infiltrating cells [1]; Peak): 9.37 % cells
CD4+ IL-17A+ IFNy+ (CNS-infiltrating cells [1]; Peak): 3.01 +/− # cells (10^3)
CD4+ IL-17A+ IFNγ+ (CNS-infiltrating cells [1]; Peak): 5.45 % cells
CNS infiltration by proinflammatory cells (CNS-infiltrating cells [1]; fourth study, MGBG 30 mpk BID): reduced
proportion and number of infiltrating dendritic cells (CNS-infiltrating cells [1]; fourth study, MGBG 30 mpk BID vs fingolimod 1 mpk QD): reduced in MGBG-treated mice more than in fingolimod-treated mice
CD11c+ of CD4− CD45.2+ high cells In Peak of Disease in Animals Without EAE Disease (CNS-infiltrating cells [1]; subset of animals which did not develop disease when vehicle-treated animals were at peak): 2.93 +/− 0.37
CD4+ IFNy+ cells (CNS-infiltrating cells [2]; [4]): 20.40 +/− 10^3
CD4+ IL-17A+ cells (CNS-infiltrating cells [2]; [4]): 23.55 +/− 10^3
CD4+ cells (CNS-infiltrating cells [2]; [4]): 152.11 +/− 10^3
CD11b+ CD206+ cells (CNS-infiltrating cells [2]; [4]): 1.92 +/− 10^3
CD11b+ IL10+ cells (CNS-infiltrating cells [2]; [4]): 3.37 +/− 10^3
CD11b+ cells (CNS-infiltrating cells [2]; [4]): 137.88 +/− 10^3
CD45.2 high CD4− CD11c+ cells (CNS-infiltrating cells [2]; [4]): 11.90 +/− 10^3
CD45.2 high CD11b− IL12+ cells (CNS-infiltrating cells [2]; [4]): 0.21 +/− 10^3
IL12+ cells (CNS-infiltrating cells [2]; [4]): 0.89 +/− 10^3
# of IL12+ cells (10^3) (CNS-infiltrating cells [2]; [5]): 0.89 +/− 10^3
% CD4+ IFNγ+ cells (CNS-infiltrating cells [2]; [5]): 15.85%
% CD11c+ of CD45.2 high CD4− cells (CNS-infiltrating cells [2]; [5]): 7.21%
% CD206+ of CD11b+ cells (CNS-infiltrating cells [2]; [5]): 1.39%
% IL10+ of CD11b+ cells (CNS-infiltrating cells [2]; [5]): 2.37%
% IL12+ of CD45.2 high CD11b− cells (CNS-infiltrating cells [2]; [5]): 0.06%
% IL-17A+ cells of CD4+ cells (CNS-infiltrating cells [2]; [5]): 15.24%
% of CD4+ cells (CNS-infiltrating cells [2]; [5]): 28.50%
% of CD11b+ cells (CNS-infiltrating cells [2]; [5]): 27.86%
CNS CD11c+ dendritic cells (CNS-infiltrating cells [2]; FIG. 8 A): reduces; also recorded: significantly reduced relative and absolute number
IL12+ dendritic cells / IL-12-producing cells (CNS-infiltrating cells [2]; FIG. 8 B): reduces; also recorded: significantly reduced number
Th1 (CNS-infiltrating cells [2]; FIG. 9 A): reduces
M1 macrophages (CNS-infiltrating cells [2]; FIG. 9 B): reduces
hematology differences versus control group ([3]; 60 mg/kg/day dose group, not thought to be adverse): lower reticulocyte count and percentage
gross or microscopic lesions at terminal sacrifice ([3]; PO twice daily 7 days, 20-60 mg/kg/day): No gross or microscopic lesions
AUC0-12 ([3]; 20 mg/kg/day, Day 7): 1030 ng·h/mL
AUC0-24 ([3]; 20 mg/kg/day, Day 7): 2190 ng·h/mL
Cmax ([3]; 20 mg/kg/day, Day 7): 117 ng/mL
Tmax ([3]; 20 mg/kg/day, Day 7): 14 h
AUC0-12 ([3]; 40 mg/kg/day, Day 7): 1800 ng·h/mL
AUC0-24 ([3]; 40 mg/kg/day, Day 7): 3690 ng·h/mL
Cmax ([3]; 40 mg/kg/day, Day 7): 194 ng/mL
Tmax ([3]; 40 mg/kg/day, Day 7): 9.33 h
Tmax ([3]; 60 mg/kg/day, Day 1): 3.33 h
AUC0-12 ([3]; 60 mg/kg/day, Day 7): 3130 ng·h/mL
AUC0-24 ([3]; 60 mg/kg/day, Day 7): 6040 ng·h/mL
Cmax ([3]; 60 mg/kg/day, Day 7): 337 ng/mL
Tmax ([3]; 60 mg/kg/day, Day 7): 7.33 h
fold increase in mean AUCall compared to Study Day 1 ([3]; 20 mg/kg/day): 3.77 fold
fold increase in mean AUCall compared to Study Day 1 ([3]; 40 mg/kg/day): 4.03 fold
fold increase in mean AUCall compared to Study Day 1 ([3]; 60 mg/kg/day): 3.68 fold

Reference: patent US10085955B2, “Methods and compositions for treatment of demyelinating diseases” (Pathologica LLC, priority 2013, dated 2018)
